Assay results: publication PMC9875028, “Identification and virtual screening of novel anti-inflammatory peptides from broccoli fermented by Lactobacillus strains” (Frontiers in Nutrition, 2023)
“Also recorded” adds a separate entry of the source.

Assays:
NO = NO release from LPS-stimulated RAW264.7 cells (Griess reagent); format: cell-based, Mouse; details: LPS 200 ng/mL; for inhibition rate of NO release: mean ± SD, n = 3
Method: (§1) RAW264.7 cells were cultured in DMEM medium containing 10% FBS and 1% double antibody at 37°C and 5% CO2 incubator. CCK-8 reagent was used for cell viability assay.
(§2) RAW264.7 cells (3 × 10^6 cells / mL) seeded into 12-well plates were pretreated with various concentrations of broccoli hydrolyzates or synthetic peptides for 2 h before stimulation by LPS (200 ng/mL). NO was determined using Griess reagent. TNF-α and IL-6 were measured by ELISA kits according to the manufacturer's instructions. More details of the assay are shown in Supplementary Table S2.

TNF-α [1] = test: TNF-α secretion by LPS-stimulated RAW264.7 cells (ELISA); format: cell-based, Mouse; details: for inhibition rate on TNF-α / effect on TNF-α production (in words): LPS 200 ng/mL; for inhibition rate on TNF-α: mean ± SD, n = 3; for effect on TNF-α production (in words): synthetic peptides 25, 50, 100 μM
Method: as §1, §2

IL-6 [2] = test: IL-6 secretion by LPS-stimulated RAW264.7 cells (ELISA); format: cell-based, Mouse; details: for effect on IL-6 production (in words): synthetic peptides 25, 50, 100 μM
Method: as §1, §2

IL-6 [3] = system: IL-6; parameters: method as in doi:10.1016/j.jff.2020.104044; details: sturgeon protein peptide; cited from earlier work
TNF-α [4] = system: TNF-α; parameters: method as in doi:10.1016/j.jff.2020.104044; details: sturgeon protein peptide; cited from earlier work
[5] = peptide concentration exceeding 25 μM

Substance	inhibition rate on TNF-α (TNF-α [1]; synthetic peptide 100 μM) [%]	effect on TNF-α production (in words) (TNF-α [1])	effect on IL-6 production (in words) (IL-6 [2]; LPS 200 ng/mL)	other results
SIWYGPDRP [synthetic peptide identified from broccoli hydrolysate]	–	–	–	inhibition rate of NO release (NO; synthetic peptide 25 μM): 52.32 ± 1.48%
DGRYW [synthetic peptide identified from broccoli hydrolysate]	–	–	–	inhibition rate of NO release (NO; synthetic peptide 100 μM): 53.94 ± 2.49%; effect on NO secretion (in words) (NO; synthetic peptides 25, 50, 100 μM): reduced NO content in inflammatory cells in a dose-dependent manner
FGDFNPGGRL [synthetic peptide identified from broccoli hydrolysate]	68.44 ± 5.63	dose-dependently decreased TNF-α	only inhibited IL-6 at a concentration of 50 μM	–
KASFAFAGL [synthetic peptide identified from broccoli hydrolysate]	–	–	–	inhibitory activity on TNF-α secretion (in words) (TNF-α [1]; [5]): did not show inhibitory activity; inhibition rate on TNF-α (TNF-α [1]; synthetic peptide 25 μM (low dose)): 43.59 ± 0.27%; inhibitory activity on IL-6 secretion (in words) (IL-6 [2]; [5]): did not show inhibitory activity; inhibition rate on IL-6 (IL-6 [2]; synthetic peptide 25 μM (low dose), LPS 200 ng/mL, mean ± SD, n = 3): 29.84 ± 0.63%
ADLAHLPF [synthetic peptide identified from broccoli hydrolysate]	73.19 ± 5.31	significantly inhibited; also recorded: dose-dependently decreased TNF-α	significantly inhibited	–
CKVWPPLH	73.83 ± 0.81	dose-dependently decreased TNF-α	–	–
GDRW [synthetic peptide identified from broccoli hydrolysate]	–	significantly inhibited	significantly inhibited	–
KIWHHFF	–	–	–	inhibition of LPS-induced IL-6 secretion (in words) (IL-6 [3]): inhibited LPS-induced IL-6 secretion only at the lowest concentration; TNF-α inhibitory activity (in words) (TNF-α [4]): did not exhibit TNF-α inhibitory activity
